Values after ≈ are worked out from the molar mass of the structure shown. One block for each molecule: values may come before it.
Tests used:
[1] = target: PD-1 and PD-L1 (Homo sapiens, UniProt Q9NZQ7); settings: as disclosed in patent CN109988144A; cited from earlier work
[2] = Solid-state stability: content and related substances by HPLC; format: physicochemical
Protocol: (§1) The samples of crystal forms A, B, and C were weighed and added to a 20 mL colorless transparent glass bottle, respectively, and the sample bottles were respectively placed under the corresponding influencing factors and acceleration conditions (the sample bottles under humidity conditions were sealed with tin foil and placed with holes, and the other samples were covered tightly and placed), taken out after being placed for 1 week and 2 weeks respectively, and the sample content and related substances under various conditions were detected by HPLC; according to the same method as above, samples were respectively weighed and placed under a corresponding influencing factor and accelerated condition, and were taken out after being placed for 2 weeks for observing the appearance and XRPD characterization of each sample, and the physical stability of each crystal form was examined, and the test methods are detailed in table 14 and table 15; at the same time, 2 samples of the crystal forms A, B, and C of the compound as shown in formula I were respectively weighed accurately into 20 mL colorless transparent glass bottles and covered tightly, placed in a −20° C. refrigerator, and taken out as a standard for HPLC analysis at 2 weeks, and the test results are detailed in table 16 and table 17.

[3] = Equilibrium solubility and dissolution rate in water, SGF, FaSSIF, FeSSIF; format: physicochemical; settings: for solubility at 0.5 h / solubility at 2 h / solubility at 24 h: 37 °C, thermodynamic from solid; for Solubility: 37° C.
Protocol: To further study whether the equilibrium solubility and dissolution rate of crystal forms A, B and C are different in pure water and physiological related media in vivo, the equilibrium solubility and dissolution rate of […] crystal forms in water, simulated gastric fluid (SGF), fasted-state simulated intestinal fluid (FaSSIF) and fed state simulated intestinal fluid (FeSSIF) were tested respectively.

[4] = Solid-state stability: appearance and crystal form (XRPD); format: physicochemical; settings: for physical stability: four storage conditions
Protocol: as §1

[5] = Dynamic vapor sorption (DVS) analysis; format: physicochemical; settings: 25° C.; for hygroscopicity: assessment in words
Protocol: (§2) The hygroscopic characteristics of the sample were tested when the humidity changed from 0% RH to 95% RH, and the dehumidifying characteristics of the sample were tested when the humidity changed from 95% RH to 0% RH. The humidity change in each step size was 5% RH, the equilibrium standard was that the weight change rate within 10 min was less than 0.01%/min, and the longest equilibrium time was 2 hours.
as §2, with “5” for “10”

[6] = Acceleration (40° C./75% RH), 1 week
[7] = Acceleration (40° C./75% RH), 2 weeks
[8] = High humidity (92.5% RH), 1 week
[9] = High humidity (92.5% RH), 2 weeks
[10] = High temperature (60° C.), 1 week
[11] = High temperature (60° C.), 2 weeks
[12] = illumination (4500 LuX), 1 week
[13] = illumination (4500 LuX), 2 weeks
[14] = Illumination (4500 Lux), 2 weeks
[15] = high temperature, high humidity, illumination and acceleration, 2 weeks (conclusion)

PD-1 and PD-L1, sequence (Q9NZQ7 19-238 limits assumed): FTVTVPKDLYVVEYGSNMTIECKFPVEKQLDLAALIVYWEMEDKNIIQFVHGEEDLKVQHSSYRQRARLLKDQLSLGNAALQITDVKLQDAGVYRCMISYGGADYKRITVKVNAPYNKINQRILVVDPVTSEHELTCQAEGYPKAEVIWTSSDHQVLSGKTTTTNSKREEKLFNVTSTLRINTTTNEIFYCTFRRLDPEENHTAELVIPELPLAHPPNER

Compound: Cc1c(/C=C/c2cc(CN[C@@](C)(CO)C(=O)O)ccc2C(F)(F)F)cccc1-c1ccccc1 [Compound I]
inhibitory effect on the combination of PD-1 and PD-L1 [1]: strong inhibitory effect

Content [2, 6]: 104.34%
Total related substances [2, 6]: 0.04%
Content [2, 7]: 104.13%
Total related substances [2, 7]: 0.03%
Total related substances ([2]; Control, −20° C., 2 weeks): 0.00%
Content [2, 8]: 104.75%
Total related substances [2, 8]: 0.10%
Content [2, 9]: 104.25%
Total related substances [2, 9]: 0.12%
Content [2, 10]: 100.69%
Total related substances [2, 10]: 0.02%
Content [2, 11]: 104.03%
Total related substances [2, 11]: 0.03%
Content [2, 12]: 96.10%
Total related substances [2, 12]: 3.94%
Content [2, 13]: 88.50%
Total related substances [2, 13]: 11.18%
solubility at 0.5 h ([3]; FaSSIF as printed (second set of rows), fessif, FaSSIF, 0.5 hours): 183 µg/mL (≈ 389 µM)
solubility at 2 h ([3]; FaSSIF as printed (second set of rows), fessif, FaSSIF, 2 hours): 177 µg/mL (≈ 376 µM)
solubility at 24 h ([3]; FaSSIF as printed (second set of rows), fessif, FaSSIF, 24 hours): 170 µg/mL (≈ 363 µM)
Solubility ([3]; FaSSIF, 2 hours): 2.0 µg/mL (≈ 4.26 µM)
Solubility ([3]; SGF, 0.5 hours): 0.4 µg/mL (≈ 0.852 µM)
Solubility ([3]; SGF, 2 hours): 0.3 µg/mL (≈ 0.639 µM)
Solubility ([3]; SGF, 24 hours): 0.1 µg/mL (≈ 0.213 µM)
Solubility ([3]; Water, 24 hours): 6.1 µg/mL (≈ 13 µM)
solubility at 0.5 h ([3]; fasted-state simulated intestinal fluid (FaSSIF), fassif, 0.5 hours): 8.7 µg/mL (≈ 18.5 µM)
solubility at 24 h ([3]; fasted-state simulated intestinal fluid (FaSSIF), fassif, 24 hours): 4.3 µg/mL (≈ 9.16 µM)
solubility at 0.5 h ([3]; water, 0.5 hours): 1.5 µg/mL (≈ 3.19 µM)
solubility at 2 h ([3]; water, 2 hours): 6 µg/mL (≈ 12.8 µM)
Appearance [4, 7]: Off-white
Crystal form (XRPD) after storage [4, 7]: Crystal form A
Appearance ([4]; Control, −20° C., 2 weeks): Off-white
Crystal form (XRPD) after storage ([4]; Control, −20° C., 2 weeks, listed as Crystal form A-Control): Crystal form A
Appearance [4, 9]: Off-white
Crystal form (XRPD) after storage [4, 9]: Crystal form A
Appearance [4, 11]: Off-white
Crystal form (XRPD) after storage [4, 11]: Crystal form A
Appearance [4, 14]: Off-white
Crystal form (XRPD) after storage [4, 14]: Crystal form A
physical stability ([4]; 2 weeks (conclusion)): good
Appearance [4, 15]: off-white
hygroscopic weight gain ([5]; 80% RH): 0.310%
hygroscopic weight gain ([5]; 95% RH): 0.409%
hygroscopicity [5]: slightly hygroscopic
Compound: Cc1c(/C=C/c2cc(CN[C@@](C)(CO)C(=O)O)ccc2C(F)(F)F)cccc1-c1ccccc1 [Crystal form A]

Content [2, 6]: 103.22%
Total related substances [2, 6]: 0.00%
Content [2, 7]: 101.60%
Total related substances [2, 7]: 0.00%
Total related substances ([2]; Control, −20° C., 2 weeks): 0.00%
Content [2, 8]: 100.09%
Total related substances [2, 8]: 0.00%
Content [2, 9]: 100.83%
Total related substances [2, 9]: 0.00%
Content [2, 10]: 100.70%
Total related substances [2, 10]: 0.00%
Content [2, 11]: 100.15%
Total related substances [2, 11]: 0.00%
Content [2, 12]: 100.02%
Total related substances [2, 12]: 0.39%
Content [2, 13]: 99.69%
Total related substances [2, 13]: 1.28%
Solubility ([3]; FaSSIF (rows r12-r14), 0.5 hours, listed as B): 13.3 µg/mL (≈ 28.3 µM)
Solubility ([3]; FaSSIF (rows r12-r14), 2 hours, listed as B): 8.8 µg/mL (≈ 18.7 µM)
Solubility ([3]; FaSSIF (rows r12-r14), 24 hours, listed as B): 8.6 µg/mL (≈ 18.3 µM)
Solubility ([3]; FaSSIF as printed (second set, rows r15-r17), 0.5 hours, listed as B): 176.4 µg/mL (≈ 376 µM)
Solubility ([3]; FaSSIF as printed (second set, rows r15-r17), 2 hours, listed as B): 175.9 µg/mL (≈ 375 µM)
Solubility ([3]; FaSSIF as printed (second set, rows r15-r17), 24 hours, listed as B): 179.7 µg/mL (≈ 383 µM)
Solubility ([3]; SGF, 2 hours): 0.1 µg/mL (≈ 0.213 µM)
Solubility ([3]; SGF, 24 hours): 0.2 µg/mL (≈ 0.426 µM)
Solubility ([3]; Water, 0.5 hours): 2.5 µg/mL (≈ 5.32 µM)
Solubility ([3]; Water, 2 hours): 7.5 µg/mL (≈ 16 µM)
Solubility ([3]; Water, 24 hours): 1.2 µg/mL (≈ 2.56 µM)
solubility at 0.5 h ([3]; simulated gastric fluid (SGF), simulated gastric fluid, SGF, 0.5 hours): 0.5 µg/mL (≈ 1.06 µM)
Appearance [4, 7]: Off-white
Crystal form (XRPD) after storage [4, 7]: Crystal form B
Appearance ([4]; Control, −20° C., 2 weeks): Off-white
Crystal form (XRPD) after storage ([4]; Control, −20° C., 2 weeks, listed as Crystal form B-Control): Crystal form B
Appearance [4, 9]: Off-white
Crystal form (XRPD) after storage [4, 9]: Crystal form B
Appearance [4, 11]: Off-white
Crystal form (XRPD) after storage [4, 11]: Mixed crystal form
Crystal form (XRPD) after storage ([4]; High temperature (60° C.), 2 weeks, listed as crystal form B): converted into other crystal form
Appearance [4, 14]: Off-white
Crystal form (XRPD) after storage [4, 14]: Crystal form B
physical stability ([4]; 2 weeks (conclusion)): poor
Appearance [4, 15]: off-white
hygroscopicity [5]: hygroscopic
weight gain ([5]; from 0% RH to 95% RH): 7.235%
Compound: Cc1c(/C=C/c2cc(CN[C@@](C)(CO)C(=O)O)ccc2C(F)(F)F)cccc1-c1ccccc1 [Crystal form B]
